From US6924268B2, “Method for inactivating gonadotrophs” (Colorado State University Research Foundation, priority 1989, dated 2005)

Legend:
ovine pituitary cells [1] = experiment: LH synthesis by ovine pituitary cells in suspension culture; assay type: cell-based; conditions: cells incubated with treatment for 16 hours; LH synthesis during 24 hour culture after removal
Protocol: In addition, the conjugation procedure reduces the toxicity of the pokeweed antiviral protein by 99.5 in a cell-free translation system. […] The activity of this conjugate was also tested in a pituitary cell culture system. In this system, pituitary cells were incubated with the sterilization agent conjugated to [D-Lys^6, des-Gly^10]-GnRH-ethylamide for 16 hours. After incubation, the sterilization agents were removed from the incubation media by extensive washing and the cells were then cultured for an additional 24 hours. The increase in total LH, i.e., that present in the media plus that in the cells during the 24 hour period, represents the ability of the treated cells to synthesize LH. […]
The effect of these compounds on ovine pituitary cells in suspension culture was measured. […] After pretreatment, the cells were washed 6 times, counted, and small aliquots removed for testing. […] 3 ml of cold Gel-PBS was added to each tube, cells were centrifuged, and the media was measured for LH content. The four pretreatment groups were evaluated for their ability to synthesize and secrete LH immediately after treatment and after the 24 hour recovery period.

ovine pituitary cells [2] = experiment: Total culture LH after exposure to GnRH and toxin conjugates with or without lysosomal agents; assay type: cell-based; conditions: 24 hour exposure, wash, further 24 hour culture in standard media
Protocol: Applicants then tested the more promising Barley-2IT-[D-Lys^6, desGly^10]-GnRH-ethylamide conjugate in similar assay systems. […] Ovine pituitary cells were again placed in culture with various agents and the total LH in the cells and media determined after a 24 hour exposure, wash, and further 24 hour culture in standard media.

[3] = tested on: GnRH induced secretion of LH; experiment: GnRH induced secretion of LH in ovariectomized female rats; assay type: in vivo; conditions: single injection; ovariectomized female rat
Protocol: Applicants also tested these compounds using an in vivo model. The test system initially chosen was the ovariectomized female rat. […] During week 2, release of LH was reduced by 50% in the GnRH-A treated group (controls), but by >90% in the GnRH-A-T group. […] It might however be the basis for a temporary sterilization. Based upon this finding, a second experiment was conducted to examine the effect of 4 injections of a pokeweed antiviral sterilization conjugate at 3-day intervals on the ability of ovariectomized rats to release LH.
Applicants also tested the PAP-carbodiimide-[D-Lys^6, desGly^10]-GnRH-ethylamide conjugate in ovariectomized female rats.
FIG. 1B indicates the results of a challenge by one of applicants' compounds to ovariectomized rats. […] The open space above the bars indicates the amount of LH released in response to a GnRH challenge. The challenges were administered on the first day of treatment and again 4 weeks later.

Substance	SYNTHESIS of LH (ovine pituitary cells [1]) [ng per 5 × 10^6 cells]	Total LH (ovine pituitary cells [2]) [Ng/10^5 cells in Culture]	reduction of release of LH, week 2 [3] [%]
gonadotropin-releasing hormone (QHWSYGLRPG; Gonadoliberin-1; UniProt P01148 24-33, looked up) [GnRH, native decapeptide hormone]	545.5		
pyroGlu-His-Trp-Ser-Tyr-D-Lys-Leu-Arg-Pro-ethylamide [[D-Lys^6, des-Gly^10]-GnRH-ethylamide]		1.62	50
